What follows are compounds tested against T1, human recombinant 15-PGDH (Homo sapiens, UniProt P15428) (assay: Inhibition of recombinant 15-PGDH enzymatic activity (NADH quantification after addition of PGE2 and NAD+)). Conditions: not given.
T1 sequence (P15428 1-266): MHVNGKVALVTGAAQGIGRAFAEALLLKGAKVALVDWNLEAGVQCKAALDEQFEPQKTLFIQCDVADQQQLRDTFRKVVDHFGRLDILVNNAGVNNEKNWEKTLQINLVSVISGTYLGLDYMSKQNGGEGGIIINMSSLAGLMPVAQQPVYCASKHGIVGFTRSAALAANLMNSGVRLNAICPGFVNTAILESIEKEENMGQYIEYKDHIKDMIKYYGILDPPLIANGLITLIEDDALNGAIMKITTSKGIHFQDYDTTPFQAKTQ
Type: biochemical
Description: The compound dose-response of its inhibition of 15-PGDH activity was determined in human recombinant 15-PGDH enzymatical assays. These assays measured 15-PGDH enzymatic activity by quantifying the amount of NADH produced during a 60-minute reaction initiated by the addition of PGE2 and NAD+. Under the conditions of these experiments, the increase of NADH signal upon oxidation of PGE2 and reduction of NAD+ was linearly proportional to 15-PGDH enzymatic activity. The recombinant human, mouse, rat and dog 15-PGDH enzymatic assays were performed in a 25 μL volume of reaction buffer containing 50 mM Tris, pH 7.5, 0.01% Tween-20 and 100 μM DTT in a 384-well microtiter plate. In concentration-response experiments with tested compounds, 22 concentrations from 2-fold serial dilutions in DMSO were pre-incubated with 15-PGDH for 15 minutes at room temperature. Then, PGE2 and ß-NAD+ were added to initiate the 15-PGDH reaction. After 60 minutes at room temperature, the reaction was quenched and NADH signal was measured using a microtiter plate reader.
The following data (Table 11-1) provides the IC50 of each compound for inhibiting enzymatic activity of recombinant 15-PGDH in the assay described above.

IC50 [nM] | Structure (SMILES)
0.387 | Cn1cc2cc(-c3cc(C4CCC4)c4c(N)c(C(=O)N5CCC(F)(F)CC5)sc4n3)cnc2n1 [Compound B4, (3-amino-4-cyclobutyl-6-(2-methyl-2H-pyrazolo[3,4-b]pyridin-5-yl)thieno[2,3-b]pyridin-2-yl)(4,4-difluoro-1-piperidinyl)methanone]

Same assay, conditions: recombinant 15-PGDH; 15 min pre-incubation, 60-minute reaction, room temperature, pH 7.5; PGE2 and NAD+; read-out: PGDH-Lumi IC50

Structure (SMILES) | IC50 [nM]
Cn1cc2cc(-c3ccc4sc(C(=O)N5CCC(F)(F)CC5)cc4n3)cnc2n1 [Compound C41, (4,4-difluoro-1-piperidinyl)(5-(2-methyl-2H-pyrazolo[3,4-b]pyridin-5-yl)thieno[3,2-b]pyridin-2-yl)methanone] | 0.429
CC(C)c1cc[n+]([O-])c2sc(C(=O)N3CCCCC3)cc12 [Compound B7, (7-oxido-4-(2-propanyl)thieno[2,3-b]pyridin-2-yl)(1-piperidinyl)methanone] | > 100000
C[C@H]1COCCN1C(=O)c1cc2ccc(-c3nccs3)nc2s1 [Compound B33S, ((3S)-3-methyl-4-morpholinyl)(6-(1,3-thiazol-2-yl)thieno[2,3-b]pyridin-2-yl)methanone] | 2650
Cn1cc2cc(-c3cc(C4CC4)c4cc(C(=O)N5CCC(C(F)(F)F)CC5)sc4n3)cnc2n1 [Compound B20, (4-cyclopropyl-6-(2-methyl-2H-pyrazolo[3,4-b]pyridin-5-yl)thieno[2,3-b]pyridin-2-yl)(4-(trifluoromethyl)-1-piperidinyl)methanone] | 1.11
Cn1cc2cc(-c3ccc4sc(C(=O)N5CCC(F)(F)CC5)c(N)c4n3)cnc2n1 [Compound C48, (3-amino-5-(2-methyl-2H-pyrazolo[3,4-b]pyridin-5-yl)thieno[3,2-b]pyridin-2-yl)(4,4-difluoro-1-piperidinyl)methanone] | 3.53
Cn1ccc2cc(-c3cnc4sc(C(=O)N5CCCCC5)cc4c3)ccc2c1=O [Compound B28, 2-methyl-6-(2-(1-piperidinylcarbonyl)thieno[2,3-b]pyridin-5-yl)-1(2H)-isoquinolinone] | 11.9
C[C@H]1COCCN1C(=O)c1sc2nc(-c3cnc4nn(C)cc4c3)cc(C3CCC3)c2c1N [Compound B6S, (3-amino-4-cyclobutyl-6-(2-methyl-2H-pyrazolo[3,4-b]pyridin-5-yl)thieno[2,3-b]pyridin-2-yl)((3S)-3-methyl-4-morpholinyl)methanone] | 0.554
Cn1cc2cc(-c3cc(C4CCC4)c4c(N)c(C(=O)N5CCOCC5)sc4n3)cnc2n1 [Compound B3, (3-amino-4-cyclobutyl-6-(2-methyl-2H-pyrazolo[3,4-b]pyridin-5-yl)thieno[2,3-b]pyridin-2-yl)(4-morpholinyl)methanone] | 0.711
COCCN(C)C(=O)c1cc2c(C3CC3)cc(-c3cnc4nn(C)cc4c3)nc2s1 [Compound B12, 4-cyclopropyl-N-(2-methoxyethyl)-N-methyl-6-(2-methyl-2H-pyrazolo[3,4-b]pyridin-5-yl)thieno[2,3-b]pyridine-2-carboxamide] | 0.704
O=C(c1cc2c(C3CC3)cc(-c3cnc(N4CCNCC4)nc3)nc2s1)N1CCCCC1 [Compound B22, (4-cyclopropyl-6-(2-(1-piperazinyl)-5-pyrimidinyl)thieno[2,3-b]pyridin-2-yl)(1-piperidinyl)methanone] | 3.61
O=C(c1nc2ccc(N3CCOCC3)nc2s1)N1CCOCC1 [Compound C50, 4-morpholinyl(5-(4-morpholinyl)[1,3]thiazolo[5,4-b]pyridin-2-yl)methanone] | 14400
Cc1c(C(=O)N2CCOCC2)sc2cc(-c3cnc4nn(C)cc4c3)ccc12 [Compound A2, (3-methyl-6-(2-methyl-2H-pyrazolo[3,4-b]pyridin-5-yl)-1-benzothiophen-2-yl)(4-morpholinyl)methanone] | 163
CO[C@H]1CCCN(C(=O)c2sc3cc(-c4cnc5nn(C)cc5c4)ccc3c2C)C1 [Compound A7S, ((3S)-3-methoxy-1-piperidinyl)(3-methyl-6-(2-methyl-2H-pyrazolo[3,4-b]pyridin-5-yl)-1-benzothiophen-2-yl)methanone] | 66.4
C[C@@H]1COCCN1C(=O)c1cc2ccc(-c3ccc(=O)n(C)c3)nc2s1 [Compound B32R, 1-methyl-5-(2-(((3R)-3-methyl-4-morpholinyl)carbonyl)thieno[2,3-b]pyridin-6-yl)-2(1H)-pyridinone] | 1350
Cn1cc2cc(-c3cnc4sc(C(=O)N5CCC(F)(F)CC5)cc4n3)cnc2n1 [Compound C40, (4,4-difluoro-1-piperidinyl)(2-(2-methyl-2H-pyrazolo[3,4-b]pyridin-5-yl)thieno[2,3-b]pyrazin-6-yl)methanone] | 0.726
COCCN(C)C(=O)c1sc2cc(-c3cnc4nn(C)cc4c3)ccc2c1C [Compound A5, N-(2-methoxyethyl)-N,3-dimethyl-6-(2-methyl-2H-pyrazolo[3,4-b]pyridin-5-yl)-1-benzothiophene-2-carboxamide] | 87.8
Cn1cc2cc(-c3ccc4cc(C(=O)N5C[C@H]6CC[C@@H]5CO6)sc4n3)cnc2n1 (stereo in doubt) [Compound B52, (6-(2-methyl-2H-pyrazolo[3,4-b]pyridin-5-yl)thieno[2,3-b]pyridin-2-yl)(2-oxa-5-azabicyclo[2.2.2]octan-5-yl)methanone] | 1.75
Cc1c(C(=O)N2CCC(F)(F)CC2)sc2cc(-c3cnc4nn(C)cc4c3)ccc12 [Compound A3, (4,4-difluoro-1-piperidinyl)(3-methyl-6-(2-methyl-2H-pyrazolo[3,4-b]pyridin-5-yl)-1-benzothiophen-2-yl)methanone] | 11.7
Cc1c(C(=O)N2CCOCC2)sc2cc(-c3ccc(=O)n(C)c3)ccc12 [Compound A9, 1-methyl-5-(3-methyl-2-(4-morpholinylcarbonyl)-1-benzothiophen-6-yl)-2(1H)-pyridinone] | 4960
C[C@@H]1COCCN1C(=O)c1cc2ccc(-c3ccc4ncccc4c3)nc2s1 [Compound B61R, ((3R)-3-methyl-4-morpholinyl)(6-(6-quinolinyl)thieno[2,3-b]pyridin-2-yl)methanone] | 189

Next, values leading:

IC50 [nM] | Structure (SMILES)
77.8 | O=C(c1cc2ccc(-c3ccc4ncccc4c3)nc2s1)N1CCOCC1 [Compound B49, 4-morpholinyl(6-(6-quinolinyl)thieno[2,3-b]pyridin-2-yl)methanone]
20.1 | Cn1cc2cc(-c3ccc4sc(C(=O)N5CCOCC5)c(N)c4n3)cnc2n1 [Compound C46, (3-amino-5-(2-methyl-2H-pyrazolo[3,4-b]pyridin-5-yl)thieno[3,2-b]pyridin-2-yl)(4-morpholinyl)methanone]
2.64 | Cn1cnc2ncc(-c3ccc4cc(C(=O)N5CCOCC5)sc4n3)cc21 [Compound B50, (6-(1-methyl-1H-imidazo[4,5-b]pyridin-6-yl)thieno[2,3-b]pyridin-2-yl)(4-morpholinyl)methanone]
0.917 | Cn1cc2cc(-c3cc(C4CC4)c4cc(C(=O)N5CCOCC5)sc4n3)cnc2n1 [Compound B10, (4-cyclopropyl-6-(2-methyl-2H-pyrazolo[3,4-b]pyridin-5-yl)thieno[2,3-b]pyridin-2-yl)(4-morpholinyl)methanone]
17.9 | Cn1cc2cc(-c3ccc4nc(C(=O)N5CCOCC5)sc4n3)cnc2n1 [Compound C51, (5-(2-methyl-2H-pyrazolo[3,4-b]pyridin-5-yl)[1,3]thiazolo[5,4-b]pyridin-2-yl)(4-morpholinyl)methanone]
8.15 | Cn1ccc2cc(-c3ccc4cc(C(=O)N5CCOCC5)sc4n3)cnc2c1=O [Compound B58, 7-methyl-3-(2-(4-morpholinylcarbonyl)thieno[2,3-b]pyridin-6-yl)-1,7-naphthyridin-8(7H)-one]
54.2 | C[C@H]1COCCN1C(=O)c1cc2ccc(-c3cnc4c(c3)nnn4C)nc2s1 [Compound B44S, ((3S)-3-methyl-4-morpholinyl)(6-(3-methyl-3H-[1,2,3]triazolo[4,5-b]pyridin-6-yl)thieno[2,3-b]pyridin-2-yl)methanone]
0.428 | Cn1cc2cc(-c3cc(C4CC4)c4cc(C(=O)N5CCCOCC5)sc4n3)cnc2n1 [Compound B24, (4-cyclopropyl-6-(2-methyl-2H-pyrazolo[3,4-b]pyridin-5-yl)thieno[2,3-b]pyridin-2-yl)(1,4-oxazepan-4-yl)methanone]
6.39 | C[C@@H]1COCCN1C(=O)c1cc2ccc(-c3cnc4nn(C)cc4c3)nc2s1 [Compound B9R, ((3R)-3-methyl-4-morpholinyl)(6-(2-methyl-2H-pyrazolo[3,4-b]pyridin-5-yl)thieno[2,3-b]pyridin-2-yl)methanone]
56.7 | C[C@@H]1COCCN1C(=O)c1cc2ccc(-c3cnc4c(c3)nnn4C)nc2s1 [Compound B44R, ((3R)-3-methyl-4-morpholinyl)(6-(3-methyl-3H-[1,2,3]triazolo[4,5-b]pyridin-6-yl)thieno[2,3-b]pyridin-2-yl)methanone]
641 | O=C(c1cc2ccc(-c3ccc(=O)[nH]c3)nc2s1)N1CCOCC1 [Compound B41, 5-(2-(4-morpholinylcarbonyl)thieno[2,3-b]pyridin-6-yl)-2(1H)-pyridinone]
